What was measured:
[1] = biological target: T1, uPA (Homo sapiens, UniProt P00749); settings: read-out: uPA Ki; value taken from earlier paper; cited from earlier work
[2] = biological target: T1, uPA
[3] = tested on: Sprague Dawley rats; settings: 25 mg/kg acetazolamide IV then 1.5 mg/kg compound IP, n = 8
[4] = tested on: 85 serine hydrolases; settings: 5 nM-33 μM
[5] = biological target: T2, epithelial sodium channels (ENaCs) (Homo sapiens, UniProt P37088+P51168+P51170); settings: compounds at 10 μM, n = 4
T2 sequence (P37088 1-669): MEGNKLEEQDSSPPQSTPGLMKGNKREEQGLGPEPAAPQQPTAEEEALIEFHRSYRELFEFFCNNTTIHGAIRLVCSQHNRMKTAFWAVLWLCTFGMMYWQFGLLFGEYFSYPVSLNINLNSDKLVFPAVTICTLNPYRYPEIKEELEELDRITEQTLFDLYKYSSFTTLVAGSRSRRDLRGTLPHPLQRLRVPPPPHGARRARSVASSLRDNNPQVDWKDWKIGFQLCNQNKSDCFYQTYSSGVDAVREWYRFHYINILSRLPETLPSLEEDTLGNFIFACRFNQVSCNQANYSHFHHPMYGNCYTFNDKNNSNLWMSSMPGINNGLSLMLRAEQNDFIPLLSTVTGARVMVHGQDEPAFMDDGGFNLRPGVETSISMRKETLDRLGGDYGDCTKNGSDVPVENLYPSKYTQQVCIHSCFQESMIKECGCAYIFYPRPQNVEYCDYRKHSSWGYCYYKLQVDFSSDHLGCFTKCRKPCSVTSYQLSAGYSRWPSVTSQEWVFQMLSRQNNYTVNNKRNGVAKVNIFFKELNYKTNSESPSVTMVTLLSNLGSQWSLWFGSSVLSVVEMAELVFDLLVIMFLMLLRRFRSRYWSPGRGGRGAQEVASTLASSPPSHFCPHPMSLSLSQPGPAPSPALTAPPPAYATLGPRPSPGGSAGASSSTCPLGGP
T2 sequence (P51168 1-640): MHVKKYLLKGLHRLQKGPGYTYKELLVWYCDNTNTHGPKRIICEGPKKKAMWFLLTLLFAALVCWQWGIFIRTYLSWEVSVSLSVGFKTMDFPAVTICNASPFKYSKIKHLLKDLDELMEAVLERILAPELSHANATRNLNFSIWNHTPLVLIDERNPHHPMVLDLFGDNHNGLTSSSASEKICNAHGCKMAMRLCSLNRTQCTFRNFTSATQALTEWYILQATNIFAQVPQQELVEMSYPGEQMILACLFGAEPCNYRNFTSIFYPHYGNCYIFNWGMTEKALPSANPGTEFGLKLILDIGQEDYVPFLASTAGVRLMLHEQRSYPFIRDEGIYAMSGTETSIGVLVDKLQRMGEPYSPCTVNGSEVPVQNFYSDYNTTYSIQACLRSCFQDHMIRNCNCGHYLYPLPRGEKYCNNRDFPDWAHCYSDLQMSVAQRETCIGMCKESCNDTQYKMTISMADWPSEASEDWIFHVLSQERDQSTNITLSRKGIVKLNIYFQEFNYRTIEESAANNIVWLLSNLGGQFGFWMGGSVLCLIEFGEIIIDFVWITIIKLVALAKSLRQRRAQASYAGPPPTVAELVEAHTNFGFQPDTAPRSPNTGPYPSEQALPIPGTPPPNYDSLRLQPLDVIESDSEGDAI
T2 sequence (P51170 1-649): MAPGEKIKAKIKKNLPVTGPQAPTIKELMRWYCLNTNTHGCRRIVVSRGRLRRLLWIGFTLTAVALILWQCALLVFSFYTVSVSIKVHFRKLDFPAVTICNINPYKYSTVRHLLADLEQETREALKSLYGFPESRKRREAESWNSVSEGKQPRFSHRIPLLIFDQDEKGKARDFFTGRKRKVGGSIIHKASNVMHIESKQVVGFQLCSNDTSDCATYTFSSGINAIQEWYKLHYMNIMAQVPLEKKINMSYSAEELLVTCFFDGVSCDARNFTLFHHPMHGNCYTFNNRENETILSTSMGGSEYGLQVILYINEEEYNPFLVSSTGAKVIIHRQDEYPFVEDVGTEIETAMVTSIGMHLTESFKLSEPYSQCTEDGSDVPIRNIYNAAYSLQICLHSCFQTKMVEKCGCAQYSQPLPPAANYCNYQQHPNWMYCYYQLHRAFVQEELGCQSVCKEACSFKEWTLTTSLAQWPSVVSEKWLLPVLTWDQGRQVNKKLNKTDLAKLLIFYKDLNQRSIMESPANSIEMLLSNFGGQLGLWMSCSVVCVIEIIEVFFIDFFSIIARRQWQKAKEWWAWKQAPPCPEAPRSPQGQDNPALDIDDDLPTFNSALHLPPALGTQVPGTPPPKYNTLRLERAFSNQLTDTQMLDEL

[6] = tested on: panel of mammalian cell lines; settings: concentrations up to 100 μM

Row | Structure (SMILES) | fold increase in uPA activity relative to amiloride ([2]; from Ki values) | uPA potency relative to amiloride (in words) [2] | further results
1 | COc1ncc(-c2nc(C(=O)NC(=N)N)c(N)nc2N2CCCCCC2)c(OC)n1 [6-(2,4-dimethoxypyrimidin-5-yl)-5-(N,N-hexamethylene) amiloride] |  |  | Ki [1]: 0.042 µM
2 | N=C(N)NC(=O)c1nc(-c2cc3cc(Br)ccc3o2)c(N)nc1N [Compound 19] |  |  | fold decrease in uPA activity relative to amiloride ([2]; from Ki values): 1.5 fold; fold loss of uPA activity relative to 15 ([2]; from Ki values): ~ 12 fold
3 | COc1ccc(-c2nc(C(=O)NC(=N)N)c(N)nc2N)c(OC)n1 [Compound 9] | 2 fold |  | 
4 | N=C(N)NC(=O)c1nc(-c2cc3ccccc3s2)c(N)nc1N [Compound 14] | 1.7 fold |  | 
5 | N=C(N)NC(=O)c1nc(-c2ccco2)c(N)nc1N [Compound 11] | 3.3 fold |  | 
6 | N=C(N)NC(=O)c1nc(-c2cccs2)c(N)nc1N [Compound 10] | 2 fold |  | 
7 | COc1ncc(-c2nc(C(=O)NC(=N)N)c(N)nc2N)cn1 [Compound 7] |  |  | effect on Na+/K+ excretion / solute concentrations (in words) [3]: no significant effect; effect on diuresis (in words) [3]: no significant effect; inhibition of serine hydrolases in EnPlex assay (in words) [4]: High uPA selectivity; ENaC activity (in words) [5]: Complete loss of ENaC activity; cytotoxicity across the cell line panel (in words) [6]: much less toxic
8 | COc1ncc(-c2nc(C(=O)NC(=N)N)c(N)nc2N)c(OC)n1 [Compound 8] |  | only a modest increase in activity | 
9 | N=C(N)NC(=O)c1nc(-c2ccccc2)c(N)nc1N [Compound 3] |  | did not improve potency | 
10 | N=C(N)NC(=O)c1nc(-c2ccc3occc3c2)c(N)nc1N [Compound 23] |  |  | uPA potency relative to 15 (in words) [2]: only a small decrease in potency
11 | N=C(N)NC(=O)c1nc(-c2ccc3c(c2)CCO3)c(N)nc1N [Compound 24] |  | slight increase | 
12 | CSc1ccc(-c2nc(C(=O)NC(=N)N)c(N)nc2N)cc1 [Compound 4] |  | did not improve potency | 
13 | N=C(N)NC(=O)c1nc(-c2ccc(C(F)(F)F)cc2)c(N)nc1N [Compound 5] |  | did not improve potency | 
